Experiment [1] relates to human MDC and PDC subsets. The experiment is described as follows: Activation of human MDC and PDC subsets: phagocytosis, phenotype, cytokine release. It is filed as cell-based. As for the experimental part: Blood CD 11c^+ myeloid DCs (MDCs) were generated from CD 14^+ mononuclear cells by magnetic cell sorting and cultured for 5 days in Iscove's modified medium, containing 10% fetal bovine serum, 50 micromolar 2-mercaptoethanol, sodium pyruvate (1 mM), 2 mM L-glutamine, HEPES (10 mM), and 50 micrograms/ml gentamycin in the presence of 50 ng/ml rHuman GM-CSF and 200 U/ml rHuman IL-4. Immature MDCs were cultured for 24 hours with 1000 ng/ml trimeric human CD40 ligand-leucine-zipper fusion protein to obtain mature DCs. CD 123^+ plasmacytoid DCs (PDCs) were isolated using the BDCA-4 isolation kit. Purity of CD 123^+ cells was >96%. For mature PDCs, immature DCs were cultured with the trimeric human CD40 ligand as above and 10 ng/ml IL-3. […] The expression of HLA Class II, CD80 and CD86 was high in both immature and mature DCs. Murine lung CD 11c^+ DCs (between 5 to 7% positive for CD8alpha and between 30 to 35% positive for Gr-1) were isolated by magnetic cell sorting. For phagocytosis, DCs were pre-exposed to 100 ng/ml TA1 for 60 minutes and subsequently incubated at 37° C. with Aspergillus conidia for an additional 60 minutes. The percentage of internalization was calculated and photographs were taken. In assessing functional maturation and cytokine determination, purified DCs were resuspended in Iscove's medium (with no serum but with polymixin B, to avoid non-specific activation by serum components and endotoxin) and pulsed with 100 ng/ml TA1 for 24 hours either alone or together with TLR ligands or unopsonized Aspergillus conidia. Cell surface phenotype was assessed by reacting samples with FITC- or PE-conjugated rat anti-mouse antibodies. Unrelated hisotype matched antibodies were used as control. The levels of TNF-alpha, IL-10, IL-12 p70, IFN-alpha and IL-8 in culture supernatants were determined by Kit ELISAs. The detection limits (pg/ml) of the assays were <3 (human) and <32 (murine) for TNF-alpha, <12 (murine) and <5 (human) for IL-10, <16 (murine) and <3 (human) for IL-12 p70 and <25 (human) IL-8. For human IFN-alpha <3 ng/ml. For enumeration of cytokine-producing cells, an ELISPOT assay was used on purified CD4^+ T cells and DCs from lungs.

In another experiment the test system is murine DCs. The experiment is described as follows: RT-PCR of TLR expression on DCs. It is filed as cell-based. How it is done:
Synthesis and PCR of cDNA were performed with forward and reverse PCR primers and the cycles used for murine and human TLRs and HPRT. The synthesized PCR products were separated by electrophoresis on 2% agarose gel and visualized by ethidium bromide staining.

The subject of the next experiment is A. fumigatus. Put plainly: Therapeutic efficacy of TA1 in T cell-, IFN-gamma- or IL-4-deficient mice with aspergillosis. It is filed as in vivo. The text has this:
Female, 8- to 10-weeks old, BALB/c and C57BL6 mice were from Charles River. NOD/SCID were from The Jackson. Breeding pairs of homozygous TLR2-, TLR9- and MyD88-deficient mice, raised on C57BL6 background, and of homozygous IFN-gamma- and IL-4-deficient mice, raised on BALB/c background, were bred under specific-pathogen free conditions.
For infection with A. fumigatus, mice were intranasally injected for 3 consecutive days with a suspension of 2×10^7 conidia/20 microliter saline. For the quantification of fungal growth in the lungs, the chitin assay was used. The chitin content was expressed as micrograms of glucosamine per organ. The glucosamine content of lungs from uninfected mice was used as a negative control ranging between 0.80 and 2.25 microgram glucosamine/organ. For histological analysis, lungs were excised and immediately fixed in formalin. Sections (3 to 4 micron) of paraffin-embedded tissues were stained with the periodic acid-Schiff procedure. Thymosin alpha 1 (TA1) and the scrambled polypeptide are as purified sterile lyophilized acetylated polypeptides with endotoxin levels less than 0.03 pg/ml, by a standard limulus lysate assay. The sequences were as follows: Ac-[…]O (Thymosin alpha 1, SEQ ID NO.: 1) and Ac-[…]OH ([…]). Their lyophilized powders were reconstituted in sterile water.
The treatments were as follows; in BMT-mice, TA1, at different doses administered intraperitoneally, sthymosin alpha 1, 400 microgram/kg administered intraperitoneally or human recombinant G-CSF 250 microgram/kg administered intravenously, were given daily beginning the day of the BM infusion, in concomitance with the infection and continuing for an additional 3 days. Amphotericin B was given daily for 3 days in concomitance with the infection, at a dose of 4000 microgram/kg, administered intraperitoneally. This dose would cure IA in cyclophosphamide-treated mice. Cyclophosphamide, 150 mg/kg administered intraperitoneally, was given a day before the infection. […]

The mark [2] stands for this setting: combined exposure to conidia and peptide.

For “Ac-Ser-Asp-Ala-Ala-Val-Asp-Thr-Ser-Ser-Glu-Ile-Thr-Thr-Lys-Asp-Leu-Lys-Glu-Lys-Lys-Glu-Val-Glu-Glu-Ala-Glu-Asn-O (Ac-SDAAVDTSSEITTKDLKEKKEVEEAEN-OH) [TA1, naturally occurring thymic peptide]”, in experiment [1] (100 ng/ml), the “activation of human MDC and PDC subsets” value is on record as “activates”. Further, the “phagocytic activity of immature DCs” value in experiment [1] (Aspergillus conidia, 100 ng/ml pre-exposure 60 minutes) is reported as “increased”. The IFN-alpha production entry in experiment [1] (PDCs, in response to the TLR9 ligand CpG) is “significantly potentiated”. The DC morphology entry in experiment [1] (immature MDCs) is listed as “more cytoplasmic projections”. Further, the “release of IL-12 p70” value in experiment [1] (immature MDCs, in response to conidia) is recorded as “significantly increase”; in experiment [1] (immature MDCs, in response to zymosan), “significantly increase”. Further, the “release of IL-10” value in experiment [1] (immature PDCs, in response to conidia) was “significantly increase”. Further, the “HLA Class II antigens and costimulatory molecule expression” value in experiment [1] (in response to conidia) is given as “up-regulate”. Also, the “expression of TLR5” value was “inhibited” with murine DCs (combined exposure to conidia and TA1); “strongly activates” in the experiment on murine DCs (peptide alone). Besides, the figures for the “expression of TLR2” value with murine DCs (setting [2]) and with murine DCs (peptide alone) were “still activated” and “strongly activates”, respectively. In addition, the “expression of TLR9” value is listed as “still activated” with murine DCs (setting [2]) and “strongly activates” in the experiment on murine DCs (peptide alone). For the same substance, the therapeutic efficacy result in the experiment on A. fumigatus (IL-4-deficient mice (increased Th1 cells)) is “improved therapeutic efficacy”; in the experiment with A. fumigatus (mice devoid of IFN-gamma-producing Th1 cells), “not as great”; in the experiment with A. fumigatus (mice devoid of T cells), “not as great”.
